According to ChEMBL document CHEMBL5532638, “Current development of 1,2,3-triazole derived potential antimalarial scaffolds: Structure- activity relationship (SAR) and bioactive compounds” (Eur J Med Chem, 2023):

tested on: Plasmodium falciparum; test: Antiplasmodial activity against CQ-resistant Plasmodium falciparum K1 infected in human O+ RBCs assessed as parasite growth inhibition incubated for 72 hrs by ELISA; format: functional, organism-based; conditions: K1, 72 h

In order of rising IC50:
1. O=C1C(Oc2ccccc2)C(c2ccc([N+](=O)[O-])cc2)N1c1ccc(OCc2cn(Cc3ccccc3)nn2)cc1 (configuration not stated)  850 nM
2. C=CCn1cc(COc2ccc(N3C(=O)C(Oc4ccccc4)C3c3cccc(OC)c3)cc2)nn1 (configuration not stated)  850 nM
3. CCOC(=O)Cn1cc(COc2ccc(C3C(Oc4ccccc4)C(=O)N3c3ccc(OCc4cn(CC(=O)OCC)nn4)cc3)cc2)nn1 (configuration not stated)  850 nM
4. O=C1C(Oc2ccccc2)C(c2ccccc2)N1c1ccc(OCc2cn(Cc3ccccc3)nn2)cc1 (configuration not stated)  850 nM
5. C=CCn1cc(COc2ccc(N3C(=O)C(Oc4ccccc4)C3c3ccccc3)cc2)nn1 (configuration not stated)  850 nM
6. C=CCn1cc(COc2ccc(C3C(Oc4ccccc4)C(=O)N3c3ccc(OCc4cn(CC=C)nn4)cc3)cc2)nn1 (configuration not stated)  850 nM
7. CCOC(=O)Cn1cc(COc2ccc(C3C(Oc4ccc(Cl)cc4Cl)C(=O)N3c3ccc(OCc4cn(CC(=O)OCC)nn4)cc3)cc2)nn1 (configuration not stated)  850 nM
8. C=CCn1cc(COc2ccc(N3C(=O)C(Oc4ccccc4)C3c3ccc([N+](=O)[O-])cc3)cc2)nn1 (configuration not stated)  850 nM
9. C=CCn1cc(COc2ccc(C3C(Oc4ccc(Cl)cc4Cl)C(=O)N3c3ccc(OCc4cn(CC=C)nn4)cc3)cc2)nn1 (configuration not stated)  850 nM
10. CCOC(=O)Cn1cc(COc2ccc(C3C(OC)C(=O)N3c3ccc(OCc4cn(CC(=O)OCC)nn4)cc3)cc2)nn1 (configuration not stated)  850 nM
11. COc1cccc(C2C(Oc3ccccc3)C(=O)N2c2ccc(OCc3cn(Cc4ccccc4)nn3)cc2)c1 (configuration not stated)  850 nM
12. O=C1C(Oc2ccccc2)C(c2ccc(OCc3cn(Cc4ccccc4)nn3)cc2)N1c1ccc(OCc2cn(Cc3ccccc3)nn2)cc1 (configuration not stated)  970 nM
13. O=C1C(Oc2ccc(Cl)cc2Cl)C(c2ccc(OCc3cn(Cc4ccccc4)nn3)cc2)N1c1ccc(OCc2cn(Cc3ccccc3)nn2)cc1 (configuration not stated)  970 nM

tested on: Plasmodium falciparum; test: Antiplasmodial activity against Plasmodium falciparum 3D7 infected in human red blood cells assessed as parasite growth inhibition incubated for 72 hrs by SYBR Green I staining based analysis; format: functional, organism-based, Red blood cell; conditions: 3D7, Erythrocyte

In order of falling IC50:
1. Fc1ccc(N/N=C/c2cn(-c3ccc(Cl)cc3)nn2)cc1  8450 nM
2. O=C(N/N=C/c1cn(-c2cc(Cl)cc(Cl)c2)nn1)c1ccncc1  6960 nM
3. Clc1cc(Cl)cc(-n2cc(/C=N/Nc3c(Cl)cccc3Cl)nn2)c1  5560 nM
4. COc1ccc(-n2cc(/C=N/Nc3ccccc3)nn2)cc1  4440 nM
5. O=C(N/N=C/c1cn(-c2ccccc2)nn1)c1ccncc1  2800 nM
6. O=C(N/N=C/c1cn(-c2ccc(Cl)cc2)nn1)c1ccncc1  2800 nM
7. COc1ccc(-n2cc(/C=N/NC(=O)c3ccncc3)nn2)cc1  2800 nM
8. COc1ccc(-n2cc(COC(=O)c3ccccc3)nn2)cc1  2800 nM
9. CCOCc1cn(-c2ccc(Cl)cc2)nn1  2800 nM
10. O=C(OCc1cnn(-c2ccccc2)n1)c1ccccc1  2800 nM
11. O=C(OCc1cn(-c2ccccc2)nn1)c1ccccc1  2800 nM
12. CCCOCc1cn(-c2cc(Cl)ccc2Cl)nn1  2800 nM
13. CCCOCc1cn(-c2cc(Cl)cc(Cl)c2)nn1  2800 nM
14. CCOCc1cn(-c2cc(Cl)cc(Cl)c2)nn1  2800 nM
15. Clc1ccc(N/N=C/c2cnn(-c3ccccc3)n2)cc1  2800 nM
16. Clc1ccc(N/N=C/c2cn(-c3ccc(Cl)cc3)nn2)cc1  2800 nM
17. Clc1cc(Cl)cc(-n2cc(/C=N/Nc3ccc(Br)cc3)nn2)c1  2800 nM
18. Cc1cccc(C)c1N/N=C/c1cn(-c2cc(Cl)cc(Cl)c2)nn1  2800 nM
19. O/N=C/c1cn(-c2cc(Cl)ccc2Cl)nn1  2800 nM
20. CCCCCCCCCC(=O)OCc1cn(-c2cc(Cl)cc(Cl)c2)nn1  2800 nM
21. Clc1ccc(-n2cc(/C=N/Nc3c(Cl)cccc3Cl)nn2)cc1  2800 nM
22. Clc1ccc(Cl)c(-n2cc(/C=N/Nc3c(Cl)cccc3Cl)nn2)c1  2800 nM
23. O=C(N/N=C/c1cnn(-c2ccccc2)n1)c1ccncc1  2800 nM
24. CCOC(=O)c1cnn(-c2ccccc2)c1  2800 nM
25. CCCCCCCCCC(=O)OCc1cn(-c2ccc(OC)cc2)nn1  2800 nM
26. Fc1ccc(N/N=C/c2cnn(-c3ccccc3)n2)cc1  2800 nM
27. C(=N\Nc1ccccc1)/c1cnn(-c2ccccc2)n1  2800 nM
28. CCCCOCc1cn(-c2cc(Cl)cc(Cl)c2)nn1  2800 nM
29. COc1ccc(-n2cc(/C=N/Nc3ccc(Cl)cc3)nn2)cc1  2800 nM
